Reference: PubChem BioAssay (NCI)
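At the GI50, growth is halved. TGI is the concentration that stops growth completely.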

Assays:
Test in all cases: growth of human tumour cells (NCI), 384-well format
786-0 renal = tested on: 786-0 renal
A498 renal = tested on: A498 renal
A549 NSCLC = tested on: A549 NSCLC
ACHN renal = tested on: ACHN renal
BT-549 breast = tested on: BT-549 breast
CAKI-1 renal = tested on: CAKI-1 renal
CCRF-CEM leukemia = tested on: CCRF-CEM leukemia
COLO 205 colon = tested on: COLO 205 colon
DU-145 prostate = tested on: DU-145 prostate
EKVX NSCLC = tested on: EKVX NSCLC
HCC-2998 colon = tested on: HCC-2998 colon
HCT-116 colon = tested on: HCT-116 colon
HCT-15 colon = tested on: HCT-15 colon
HL-60(TB) leukemia = tested on: HL-60(TB) leukemia
HOP-62 NSCLC = tested on: HOP-62 NSCLC
HOP-92 NSCLC = tested on: HOP-92 NSCLC
HS 578T breast = tested on: HS 578T breast
HT29 colon = tested on: HT29 colon
IGROV1 ovarian = tested on: IGROV1 ovarian
K-562 leukemia = tested on: K-562 leukemia
KM12 colon = tested on: KM12 colon
LOX IMVI melanoma = tested on: LOX IMVI melanoma
M14 melanoma = tested on: M14 melanoma
MALME-3M melanoma = tested on: MALME-3M melanoma
MCF7 breast = tested on: MCF7 breast
MDA-MB-231 breast = tested on: MDA-MB-231 breast
MDA-MB-435 melanoma = tested on: MDA-MB-435 melanoma
MDA-MB-468 breast = tested on: MDA-MB-468 breast
MOLT-4 leukemia = tested on: MOLT-4 leukemia
NCI-H226 lung = tested on: NCI-H226 lung
NCI-H23 lung = tested on: NCI-H23 lung
NCI-H322M lung = tested on: NCI-H322M lung
NCI-H460 NSCLC = tested on: NCI-H460 NSCLC
NCI-H522 lung = tested on: NCI-H522 lung
NCI/ADR-RES ovarian = tested on: NCI/ADR-RES ovarian
OVCAR-3 ovarian = tested on: OVCAR-3 ovarian
OVCAR-4 ovarian = tested on: OVCAR-4 ovarian
OVCAR-5 ovarian = tested on: OVCAR-5 ovarian
OVCAR-8 ovarian = tested on: OVCAR-8 ovarian
PC-3 prostate = tested on: PC-3 prostate
RPMI-8226 leukemia = tested on: RPMI-8226 leukemia
RXF 393 renal = tested on: RXF 393 renal
SF-268 CNS = tested on: SF-268 CNS
SF-295 CNS = tested on: SF-295 CNS
SF-539 CNS = tested on: SF-539 CNS
SK-MEL-28 melanoma = tested on: SK-MEL-28 melanoma
SK-MEL-5 melanoma = tested on: SK-MEL-5 melanoma
SK-OV-3 ovarian = tested on: SK-OV-3 ovarian
SN12C renal = tested on: SN12C renal
SNB-19 CNS = tested on: SNB-19 CNS
SNB-75 CNS = tested on: SNB-75 CNS
SW-620 colon = tested on: SW-620 colon
T-47D breast = tested on: T-47D breast
TK-10 renal = tested on: TK-10 renal
U251 glioblastoma = tested on: U251 glioblastoma
UACC-257 melanoma = tested on: UACC-257 melanoma
UACC-62 melanoma = tested on: UACC-62 melanoma
UO-31 renal = tested on: UO-31 renal

COc1cc2c(NC3CCN(C(C)C)CC3)nc(C3CCCCC3)nc2cc1OCCCN1CCCC1
GI50 ([…]-0 renal): 1350 nM | TGI (786-0 renal): 2650 nM | GI50 (A498 renal): 683 nM | TGI (A498 renal): 1960 nM | GI50 (A549 NSCLC): 1560 nM | TGI (A549 NSCLC): 3000 nM | GI50 (ACHN renal): 1790 nM | TGI (ACHN renal): 3800 nM | GI50 (BT-549 breast): 378 nM | TGI (BT-549 breast): 1340 nM | GI50 (CAKI-1 renal): 1390 nM | TGI (CAKI-1 renal): 2720 nM | GI50 (CCRF-CEM leukemia): 205 nM | TGI (CCRF-CEM leukemia): 397 nM | GI50 (COLO 205 colon): 1330 nM | TGI (COLO 205 colon): 2640 nM | GI50 (DU-145 prostate): 1230 nM | TGI (DU-145 prostate): 4290 nM | GI50 (EKVX NSCLC): 807 nM | TGI (EKVX NSCLC): 2860 nM | GI50 (HCC-2998 colon): 1560 nM | TGI (HCC-2998 colon): 3010 nM | GI50 (HCT-116 colon): 550 nM | TGI (HCT-116 colon): 1750 nM | GI50 (HCT-15 colon): 1240 nM | TGI (HCT-15 colon): 5200 nM | GI50 (HL-60(TB) leukemia): 429 nM | TGI (HL-60(TB) leukemia): 1070 nM | GI50 (HOP-62 NSCLC): 1710 nM | TGI (HOP-62 NSCLC): 3140 nM | GI50 (HOP-92 NSCLC): 1200 nM | TGI (HOP-92 NSCLC): 2460 nM | GI50 (HS 578T breast): 1750 nM | TGI (HS 578T breast): 3140 nM | GI50 (HT29 colon): 285 nM | TGI (HT29 colon): 1110 nM | GI50 (IGROV1 ovarian): 1530 nM | TGI (IGROV1 ovarian): 11300 nM | GI50 (K-562 leukemia): 484 nM | TGI (K-562 leukemia): 1740 nM | GI50 (KM12 colon): 991 nM | TGI (KM12 colon): 2520 nM | GI50 (LOX IMVI melanoma): 1450 nM | TGI (LOX IMVI melanoma): 2790 nM | GI50 (M14 melanoma): 1740 nM | TGI (M14 melanoma): 3140 nM | GI50 (MALME-3M melanoma): 1370 nM | TGI (MALME-3M melanoma): 2680 nM | GI50 (MCF7 breast): 1110 nM | TGI (MCF7 breast): 2400 nM | GI50 (MDA-MB-231 breast): 1610 nM | TGI (MDA-MB-231 breast): 3340 nM | GI50 (MDA-MB-435 melanoma): 1160 nM | TGI (MDA-MB-435 melanoma): 2400 nM | GI50 (MDA-MB-468 breast): 262 nM | TGI (MDA-MB-468 breast): 587 nM | GI50 (MOLT-4 leukemia): 552 nM | TGI (MOLT-4 leukemia): 1910 nM | GI50 (NCI-H226 lung): 1790 nM | TGI (NCI-H226 lung): 3940 nM | GI50 (NCI-H23 lung): 1950 nM | TGI (NCI-H23 lung): 4650 nM | GI50 (NCI-H322M lung): 1490 nM | TGI (NCI-H322M lung): 3010 nM | GI50 (NCI-H460 NSCLC): 365 nM | TGI (NCI-H460 NSCLC): 1040 nM | GI50 (NCI-H522 lung): 634 nM | TGI (NCI-H522 lung): 1830 nM | GI50 (NCI/ADR-RES ovarian): 69000 nM | TGI (NCI/ADR-RES ovarian): > 100000 nM | GI50 (OVCAR-3 ovarian): 835 nM | TGI (OVCAR-3 ovarian): 2080 nM | GI50 (OVCAR-4 ovarian): 1120 nM | TGI (OVCAR-4 ovarian): 2440 nM | GI50 (OVCAR-5 ovarian): 1970 nM | TGI (OVCAR-5 ovarian): 4260 nM | GI50 (OVCAR-8 ovarian): 1540 nM | TGI (OVCAR-8 ovarian): 2910 nM | GI50 (PC-3 prostate): 1430 nM | TGI (PC-3 prostate): 4160 nM | GI50 (RPMI-8226 leukemia): 368 nM | TGI (RPMI-8226 leukemia): 1130 nM | GI50 (RXF 393 renal): 347 nM | TGI (RXF 393 renal): 1400 nM | GI50 (SF-268 CNS): 307 nM | TGI (SF-268 CNS): 1520 nM | GI50 (SF-295 CNS): 1800 nM | TGI (SF-295 CNS): 3210 nM | GI50 (SF-539 CNS): 292 nM | TGI (SF-539 CNS): 937 nM | GI50 (SK-MEL-28 melanoma): 1260 nM | TGI (SK-MEL-28 melanoma): 2530 nM | GI50 (SK-MEL-5 melanoma): 873 nM | TGI (SK-MEL-5 melanoma): 2120 nM | GI50 (SK-OV-3 ovarian): 1410 nM | TGI (SK-OV-3 ovarian): 2970 nM | GI50 (SN12C renal): 1120 nM | TGI (SN12C renal): 2950 nM | GI50 (SNB-19 CNS): 1230 nM | TGI (SNB-19 CNS): 3100 nM | GI50 (SNB-75 CNS): 1400 nM | TGI (SNB-75 CNS): 2710 nM | GI50 (SW-620 colon): 1550 nM | TGI (SW-620 colon): 2910 nM | GI50 (T-47D breast): 573 nM | TGI (T-47D breast): 1830 nM | GI50 (TK-10 renal): 1280 nM | TGI (TK-10 renal): 2560 nM | GI50 (U251 glioblastoma): 1030 nM | TGI (U251 glioblastoma): 2200 nM | GI50 (UACC-257 melanoma): 1250 nM | TGI (UACC-257 melanoma): 2510 nM | GI50 (UACC-62 melanoma): 1750 nM | TGI (UACC-62 melanoma): 3150 nM | GI50 (UO-31 renal): 1320 nM | TGI (UO-31 renal): 2720 nM
